Experimental data as given in patent US20080107623A1, “Inhibitors of Hepatitis C Virus” (Bristol-Myers Squibb Company, priority 2006, published 2008).

Tests used:
[1] = molecular target: T1, HCV NS3/4A protease complex, BMS strain (UniProt P27958, species not given/STRAIN_BMS); assay: FRET peptide assay to monitor HCV NS3/4A proteolytic activity (BMS strain); type: biochemical, HCV genotype 1a; settings: NS3/4A BMS strain; read-out: IC50 Activity Range
T1 construct: said of H77 and J4L6S, not expressly of BMS; These are given for the H77 and J4L6S constructs only
From the text: HCV NS3 protease complexes, derived from the BMS strain, H77 strain or J4L6S strain, were generated, as described below. These purified recombinant proteins were generated for use in a homogeneous assay (see below) to provide an indication of how effective compounds of the present disclosure would be in inhibiting HCV NS3 proteolytic activity.
Serum from an HCV-infected patient was obtained from Dr. T. Wright, San Francisco Hospital. An engineered full-length cDNA (compliment deoxyribonucleic acid) template of the HCV genome (BMS strain) was constructed from DNA fragments obtained by reverse transcription-PCR (RT-PCR) of serum RNA (ribonucleic acid) and using primers selected on the basis of homology between other genotype 1a strains. From the determination of the entire genome sequence, a genotype 1a was assigned to the HCV isolate according to the classification of Simmonds et al. (See P Simmonds, K A Rose, S Graham, S W Chan, F McOmish, B C Dow, E A Follett, P L Yap and H Marsden, J. Clin. Microbiol., 31(6), 1493-1503 (1993)). […] The infectious clones, H77 (1a genotype) and J4L6S (1b genotype) were obtained from R. Purcell (NIH) and the sequences are published in Genbank (AAB67036, see Yanagi, M., Purcell, R. H., Emerson, S. U. and Bukh, J. Proc. Natl. Acad. Sci. U.S.A. 94(16),8738-8743 (1997); AF054247, see Yanagi, M., St Claire, M., Shapiro, M., Emerson, S. U., Purcell, R. H. and Bukh, J, Virology 244 (1), 161-172. (1998)).
NS3/4A protease complex-containing fractions were pooled and loaded on a desalting column Superdex-S200 pre-equilibrated with buffer D (25 mM HEPES, pH 7.5, 20% glycerol, 300 mM NaCl, 0.2% Triton X-100, 10 mM βME). Sample was loaded at a flow rate of 1 mL/min. NS3/4A protease complex-containing fractions were pooled and concentrated to approximately 0.5 mg/ml. The purity of the NS3/4A protease complexes, derived from the BMS, H77 and J4L6S strains, were judged to be greater than 90% by SDS-PAGE and mass spectrometry analyses. The enzyme was stored at −80° C., thawed on ice and diluted prior to use in assay buffer.
The purpose of this in vitro assay was to measure the inhibition of HCV NS3 protease complexes, derived from the BMS strain, H77 strain or J4L6S strain, as described above, by compounds of the present disclosure. This assay provides an indication of how effective compounds of the present disclosure would be in inhibiting HCV NS3 proteolytic activity.
In order to monitor HCV NS3/4A protease activity, an NS3/4A peptide substrate was used. The substrate was RET SI (Resonance Energy Transfer Depsipeptide Substrate; AnaSpec, Inc. cat #22991) (FRET peptide), described by Taliani et al. in Anal. Biochem. 240(2):60-67 (1996). […] The peptide also contains a fluorescence donor, EDANS, near one end of the peptide and an acceptor, DABCYL, near the other end. The fluorescence of the peptide is quenched by […] resonance energy transfer (RET) between the donor and the acceptor, but as the NS3 protease cleaves the peptide the products are released from RET quenching and the fluorescence of the donor becomes apparent.
The peptide substrate was incubated with one of the three recombinant NS3/4A protease complexes, in the absence or presence of a compound of the present disclosure. The inhibitory effects of a compound was determined by monitoring the formation of fluorescent reaction product in real time using a Cytofluor Series 4000. […]

[2] = system: HCV replicon in HUH-7 cells; assay: HCV replicon FRET assay; type: cell-based, HCV strain 1b; settings: Hepatitis C virus, Huh-7; HCV replicon; which replicon assay not stated; read-out: EC50 Activity Range
From the text: An HCV replicon whole cell system was established as described by Lohmann V, Korner F, Koch J, Herian U, Theilmann L, Bartenschlager R., Science 285(5424):110-3 (1999). This system enabled us to evaluate the effects of our HCV Protease compounds on HCV RNA replication. Briefly, using the HCV strain 1b sequence described in the Lohmann paper (Assession number: AJ238799), an HCV cDNA was synthesized by Operon Technologies, Inc. (Alameda, Calif.), and the full-length replicon was then assembled in plasmid pGem9zf(+) (Promega, Madison, Wis.) using standard molecular biology techniques. The replicon consists of (i) the HCV 5′ UTR fused to the first 12 amino acids of the capsid protein, (ii) the neomycin phosphotransferase gene (neo), (iii) the IRES from encephalomyocarditis virus (EMCV), and (iv) HCV NS3 to NS5B genes and the HCV 3′ UTR. Plasmid DNAs were linearized with ScaI and RNA transcripts were synthesized in vitro using the T7 MegaScript transcription kit (Ambion, Austin, Tex.) according to manufacturer's directions. In vitro transcripts of the cDNA were transfected into the human hepatoma cell line, HUH-7. […] Resulting cell lines were characterized for positive and negative strand RNA production and protein production over time.
The HCV replicon FRET assay was developed to monitor the inhibitory effects of compounds described in the disclosure on HCV viral replication. HUH-7 cells, constitutively expressing the HCV replicon, were grown in Dulbecco's Modified Eagle Media (DMEM) (Gibco-BRL) containing 10% Fetal calf serum (FCS) (Sigma) and 1 mg/ml G418 (Gibco-BRL). Cells were seeded the night before (1.5×10^4 cells/well) in 96-well tissue-culture sterile plates. Compound and no compound controls were prepared in DMEM containing 4% FCS, 1:100 Penicillin/Streptomysin (Gibco-BRL), 1:100 L-glutamine and 5% DMSO in the dilution plate (0.5% DMSO final concentration in the assay). Compound/DMSO mixes were added to the cells and incubated for 4 days at 37° C. After 4 days, cells were first assessed for cytotoxicity using alamar Blue (Trek Diagnotstic Systems) for a CC50 reading. The toxicity of compound (CC50) was determined by adding 1/10th volume of alamar Blue to the media incubating the cells. After 4 hours, the fluorescence signal from each well was read, with an excitation wavelength at 530 nm and an emission wavelength of 580 nm, using the Cytofluor Series 4000 (Perspective Biosystems). Plates were then rinsed thoroughly with Phosphate-Buffered Saline (PBS) (3 times 150 μl). The cells were lysed with 25 μl of a lysis assay reagent containing an HCV protease substrate (5× cell Luciferase cell culture lysis reagent (Promega #E153A) diluted to 1× with distilled water, NaCl added to 150 mM final, the FRET peptide substrate (as described for the enzyme assay above) diluted to 10 μM final from a 2 mM stock in 100% DMSO. […]. The plate was then placed into the Cytofluor 4000 instrument which had been set to 340 nm excitation/490 nm emission, automatic mode for 21 cycles and the plate read in a kinetic mode. EC50 determinations were carried out as described for the IC50 determinations.

T1 sequence (P27958 1027-1657, change not shown, one chain of several): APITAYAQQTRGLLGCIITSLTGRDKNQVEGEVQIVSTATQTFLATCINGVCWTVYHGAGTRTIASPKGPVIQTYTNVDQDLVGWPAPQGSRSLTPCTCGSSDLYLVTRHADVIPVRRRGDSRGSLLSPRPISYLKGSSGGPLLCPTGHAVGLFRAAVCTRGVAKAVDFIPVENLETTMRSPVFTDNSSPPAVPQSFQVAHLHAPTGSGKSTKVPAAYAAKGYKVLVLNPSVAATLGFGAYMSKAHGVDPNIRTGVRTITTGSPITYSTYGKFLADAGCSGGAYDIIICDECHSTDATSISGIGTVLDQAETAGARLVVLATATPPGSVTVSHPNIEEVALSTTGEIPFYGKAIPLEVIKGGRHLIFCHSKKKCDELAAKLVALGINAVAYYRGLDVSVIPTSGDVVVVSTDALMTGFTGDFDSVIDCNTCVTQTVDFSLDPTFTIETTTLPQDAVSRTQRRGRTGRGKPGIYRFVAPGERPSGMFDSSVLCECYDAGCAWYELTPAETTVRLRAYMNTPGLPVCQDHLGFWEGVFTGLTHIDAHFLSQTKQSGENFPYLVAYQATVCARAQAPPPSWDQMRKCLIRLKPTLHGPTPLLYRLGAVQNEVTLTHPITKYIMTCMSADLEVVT

Row | Compound | IC50 [1] | EC50 [2] | melting point
1 | CC(C)(C)OC(=O)N[C@H]1CCCCC/C=C\[C@@H]2C[C@@]2(C(=O)NS(=O)(=O)C2CC2)NC(=O)[C@@H]2C[C@@H](Oc3ccccn3)CN2C1=O [Compound 1] | < 100 nM | 100 to 1000 nM | –
2 | CC(C)(C)OC(=O)N[C@H]1CCCCC/C=C\[C@@H]2C[C@@]2(C(=O)NS(=O)(=O)C2CC2)NC(=O)[C@@H]2C[C@@H](Oc3ccc([N+](=O)[O-])cc3)CN2C1=O [Compound 2] | < 100 nM | > 1000 nM | –
3 | CC(C)(C)OC(=O)N[C@H]1CCCOC/C=C\[C@@H]2C[C@@]2(C(=O)NS(=O)(=O)C2CC2)NC(=O)[C@@H]2C[C@@H](OCc3ccccc3)CN2C1=O [Compound 5, (1S,4R,6S,14S,18R,7-cis)-18-benzyloxy-14-tert-butoxycarbonylamino-4-cyclopropanesulfonylaminocarbonyl-2,15-dioxo-3,16-diaza-10-oxatricyclo[14.3.0.0^4,6]nonadec-7-ene] | < 100 nM | > 1000 nM | 147 to 149 °C
4 | CC(C)(C)OC(=O)N[C@H]1CCCOC/C=C\[C@@H]2C[C@@]2(C(=O)NS(=O)(=O)C2CC2)NC(=O)[C@@H]2C[C@@H](OC(C)(C)C)CN2C1=O [Compound 6, (1S,4R,6S,14S,18R,7-cis)-18-tert-butoxy-14-tert-butoxycarbonylamino-4-cyclopropanesulfonylaminocarbonyl-2,15-dioxo-3,16-diaza-10-oxatricyclo[14.3.0.0^4,6]nonadec-7-ene] | 100 to 1000 nM | > 1000 nM | –
